{"source": "ChEMBL document CHEMBL4364281", "about": "“Design of wogonin-inspired selective cyclin-dependent kinase 9 (CDK9) inhibitors with potent in vitro and in vivo antitumor activity” (Eur J Med Chem, 2019)", "key": {"MV4-11 [1]": {"tested_on": "MV4-11", "assay": "Cell cycle arrest in human MV4-11 cells assessed as accumulation at G1 phase at 0.05 uM after 24 hrs by propidium iodide staining based flow cytometry (reference value: 41.20%)", "type": "functional"}, "MV4-11 [2]": {"tested_on": "MV4-11", "assay": "Cell cycle arrest in human MV4-11 cells assessed as accumulation at G2 phase at 0.05 uM after 24 hrs propidium iodide staining based flow cytometry (reference value: 22.73%)", "type": "functional"}, "MV4-11 [3]": {"tested_on": "MV4-11", "assay": "Induction of apoptosis in human MV4-11 cells assessed as decrease in MCL-1 expression after 4 hrs by Western blot analysis", "type": "functional, cell-based"}, "THP-1": {"tested_on": "THP-1", "assay": "Antiproliferative activity against human THP1 cells assessed as reduction in cell viability after 72 hrs by MTT assay", "type": "functional, cell-based", "details": "THP-1, 72 h"}, "physchem [4]": {"assay": "physchem", "description": "Intrinsic solubility of compound by potentiometric titration assay"}, "MV4-11 [5]": {"tested_on": "MV4-11", "assay": "Induction of apoptosis in human MV4-11 cells assessed as viable cells at 1.25 uM after 24 hrs by Annexin-V/propidium iodide staining based flow cytometric method (reference value: 96.94%)", "type": "functional", "details": "MV4-11, 24 h, read-out: Activity"}, "MV4-11 [6]": {"tested_on": "MV4-11", "assay": "Induction of apoptosis in human MV4-11 cells assessed as late apoptotic cells at 0.25 uM after 24 hrs by Annexin-V/propidium iodide staining based flow cytometric method (reference value: 0.07%)", "type": "functional"}, "MV4-11 [7]": {"tested_on": "MV4-11", "assay": "Induction of apoptosis in human MV4-11 cells assessed as necrotic cells at 0.25 uM after 24 hrs by Annexin-V/propidium iodide staining based flow cytometric method (reference value: 2.64%)", "type": "functional"}, "MV4-11 [8]": {"tested_on": "MV4-11", "assay": "Induction of apoptosis in human MV4-11 cells assessed as early apoptotic cells at 0.05 uM after 24 hrs by Annexin-V/propidium iodide staining based flow cytometric method (reference value: 0.36%)", "type": "functional"}, "HL-60": {"tested_on": "HL-60", "assay": "Antiproliferative activity against human HL60 cells assessed as reduction in cell viability after 72 hrs by MTT assay", "type": "functional, cell-based", "details": "HL-60, 72 h"}, "MV4-11 [9]": {"tested_on": "MV4-11", "assay": "Cell cycle arrest in human MV4-11 cells assessed as accumulation at S phase at 1.25 uM after 24 hrs propidium iodide staining based flow cytometry (reference value: 26.06%)", "type": "functional"}, "MV4-11 [10]": {"tested_on": "MV4-11", "assay": "Antitumor activity against human MV4-11 cells xenografted in BALB/c mouse assessed as tumour growth inhibition at 15 mg/kg, iv administered every other day for 21 days relative to control", "type": "functional", "details": "MV4-11, iv, 504 h, read-out: TGI"}, "MV4-11 [11]": {"tested_on": "MV4-11", "assay": "Induction of apoptosis in human MV4-11 cells assessed as increase in caspase-3 level after 24 hrs by Western blot analysis", "type": "functional, cell-based"}, "CCRF-CEM": {"tested_on": "CCRF-CEM", "assay": "Antiproliferative activity against human CEM cells assessed as reduction in cell viability after 72 hrs by MTT assay", "type": "functional, cell-based"}, "MV4-11 [12]": {"tested_on": "MV4-11", "assay": "Antitumor activity against human MV4-11 cells xenografted in BALB/c mouse assessed as tumour growth inhibition at 45 mg/kg, iv administered every other day for 21 days relative to control", "type": "functional", "details": "MV4-11, iv, 504 h, read-out: TGI"}, "CDK9/cyclin T1": {"biological_target": "CDK9/cyclin T1 (Homo sapiens, UniProt P50750)", "sequence (O60563 whole entry)": "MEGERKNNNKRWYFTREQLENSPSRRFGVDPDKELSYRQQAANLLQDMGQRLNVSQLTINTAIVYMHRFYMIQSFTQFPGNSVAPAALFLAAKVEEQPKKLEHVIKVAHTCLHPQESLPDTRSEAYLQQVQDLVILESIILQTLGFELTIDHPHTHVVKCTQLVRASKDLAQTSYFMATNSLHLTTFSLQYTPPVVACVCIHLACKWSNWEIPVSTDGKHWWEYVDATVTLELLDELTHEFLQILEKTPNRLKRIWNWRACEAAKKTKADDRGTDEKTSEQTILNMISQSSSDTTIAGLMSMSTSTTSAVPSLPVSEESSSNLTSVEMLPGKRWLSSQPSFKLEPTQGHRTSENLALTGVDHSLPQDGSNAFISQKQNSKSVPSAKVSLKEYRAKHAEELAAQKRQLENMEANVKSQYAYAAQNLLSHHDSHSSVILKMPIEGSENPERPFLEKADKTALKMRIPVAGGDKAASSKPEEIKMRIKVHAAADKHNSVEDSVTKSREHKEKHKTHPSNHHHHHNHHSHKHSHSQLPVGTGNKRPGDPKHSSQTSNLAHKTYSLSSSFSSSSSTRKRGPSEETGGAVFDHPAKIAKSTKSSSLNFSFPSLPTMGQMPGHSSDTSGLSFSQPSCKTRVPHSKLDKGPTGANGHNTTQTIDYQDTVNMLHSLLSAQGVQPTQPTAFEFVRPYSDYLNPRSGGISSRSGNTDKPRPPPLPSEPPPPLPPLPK", "sequence (P50750 whole entry)": "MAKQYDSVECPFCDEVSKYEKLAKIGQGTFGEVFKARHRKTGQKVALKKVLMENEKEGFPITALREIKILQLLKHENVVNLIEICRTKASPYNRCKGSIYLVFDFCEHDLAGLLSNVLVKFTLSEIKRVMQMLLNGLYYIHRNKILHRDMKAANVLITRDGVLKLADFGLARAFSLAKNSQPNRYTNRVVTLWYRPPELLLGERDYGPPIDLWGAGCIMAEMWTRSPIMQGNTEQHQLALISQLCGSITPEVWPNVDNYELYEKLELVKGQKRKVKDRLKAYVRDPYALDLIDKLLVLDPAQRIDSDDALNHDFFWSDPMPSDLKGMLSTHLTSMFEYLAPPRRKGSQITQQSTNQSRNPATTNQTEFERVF"}, "MV4-11 [13]": {"tested_on": "MV4-11", "assay": "Induction of apoptosis in human MV4-11 cells by Annexin-V/propidium iodide staining based flow cytometric method", "type": "functional, cell-based"}, "MV4-11 [14]": {"tested_on": "MV4-11", "assay": "Cell cycle arrest in human MV4-11 cells assessed as accumulation at G2 phase at 0.25 uM after 24 hrs propidium iodide staining based flow cytometry (reference value: 22.73%)", "type": "functional"}, "MV4-11 [15]": {"tested_on": "MV4-11", "assay": "Induction of apoptosis in human MV4-11 cells assessed as late apoptotic cells at 1.25 uM after 24 hrs by Annexin-V/propidium iodide staining based flow cytometric method (reference value: 0.07%)", "type": "functional"}, "MV4-11 [16]": {"tested_on": "MV4-11", "assay": "Induction of apoptosis in human MV4-11 cells assessed as necrotic cells at 0.05 uM after 24 hrs by Annexin-V/propidium iodide staining based flow cytometric method (reference value: 2.64%)", "type": "functional"}, "HeLa": {"tested_on": "HeLa", "assay": "Antiproliferative activity against human HeLa cells assessed as reduction in cell viability after 72 hrs by MTT assay", "type": "functional, cell-based"}, "MV4-11 [17]": {"tested_on": "MV4-11", "assay": "Induction of apoptosis in human MV4-11 cells assessed as increase in cleaved PARP level after 24 hrs by Western blot analysis", "type": "functional, cell-based"}, "[18]": {"assay": "Toxicity in BALB/c mouse assessed as mortality at 15 to 45 mg/kg, iv administered every other day for 21 days", "type": "organism-based", "details": "in vivo, 504 h"}, "BT-549": {"tested_on": "BT-549", "assay": "Antiproliferative activity against human BT549 cells assessed as reduction in cell viability after 72 hrs by MTT assay", "type": "functional, cell-based", "details": "BT-549, 72 h"}, "MV4-11 [19]": {"tested_on": "MV4-11", "assay": "Cell cycle arrest in human MV4-11 cells assessed as accumulation at G1 phase at 1.25 uM after 24 hrs by propidium iodide staining based flow cytometry (reference value: 41.20%)", "type": "functional"}, "MV4-11 [20]": {"tested_on": "MV4-11", "assay": "Cell cycle arrest in human MV4-11 cells assessed as accumulation at S phase at 0.25 uM after 24 hrs propidium iodide staining based flow cytometry (reference value: 26.06%)", "type": "functional"}, "MV4-11 [21]": {"tested_on": "MV4-11", "assay": "Cell cycle arrest in human MV4-11 cells assessed as accumulation at G1 phase at 0.25 uM after 24 hrs after 24 hrs by propidium iodide staining based flow cytometry (reference value: 41.20%)", "type": "functional"}, "HT-29": {"tested_on": "HT-29", "assay": "Antiproliferative activity against human HT-29 cells assessed as reduction in cell viability after 72 hrs by MTT assay", "type": "functional, cell-based", "details": "HT-29, 72 h"}, "RPMI-8226": {"tested_on": "RPMI-8226", "assay": "Antiproliferative activity against human RPMI8226 cells assessed as reduction in cell viability after 72 hrs by MTT assay", "type": "functional, cell-based", "details": "RPMI-8226, 72 h"}, "MV4-11 [22]": {"tested_on": "MV4-11", "assay": "Induction of apoptosis in human MV4-11 cells assessed as effect on BCL-2 expression after 4 hrs by Western blot analysis", "type": "functional, cell-based"}, "HCT-116": {"tested_on": "HCT-116", "assay": "cells", "details": "Homo sapiens, HCT-116, 72 h", "description": "Antiproliferative activity against human HCT116 cells assessed as reduction in cell viability after 72 hrs by MTT assay"}, "L02": {"tested_on": "L02", "assay": "Cytotoxicity against human LO2 cells assessed as reduction in cell viability after 72 hrs by MTT assay", "type": "cell-based", "details": "L02, 72 h"}, "SW480": {"tested_on": "SW480", "assay": "Antiproliferative activity against human SW480 cells assessed as reduction in cell viability after 72 hrs by MTT assay", "type": "functional, cell-based", "details": "SW480, 72 h"}, "MV4-11 [23]": {"tested_on": "MV4-11", "assay": "Cell cycle arrest in human MV4-11 cells assessed as accumulation at G2 phase at 1.25 uM after 24 hrs propidium iodide staining based flow cytometry (reference value: 22.73%)", "type": "functional"}, "physchem [24]": {"assay": "physchem", "details": "methanesulfonic acid buffer, pH 4.5", "description": "Solubility of compound in methanesulfonic acid buffer at pH 4.5"}, "MV4-11 [25]": {"tested_on": "MV4-11", "assay": "Induction of apoptosis in human MV4-11 cells assessed as decrease in c-MYC expression after 4 hrs by Western blot analysis", "type": "functional, cell-based"}, "MV4-11 [26]": {"tested_on": "MV4-11", "assay": "Induction of apoptosis in human MV4-11 cells assessed as necrotic cells at 1.25 uM after 24 hrs by Annexin-V/propidium iodide staining based flow cytometric method (reference value: 2.64%)", "type": "functional"}, "MV4-11 [27]": {"tested_on": "MV4-11", "assay": "Cell cycle arrest in human MV4-11 cells assessed as accumulation at S phase at 0.05 uM after 24 hrs propidium iodide staining based flow cytometry (reference value: 26.06%)", "type": "functional"}, "MV4-11 [28]": {"tested_on": "MV4-11", "assay": "Induction of apoptosis in human MV4-11 cells assessed as late apoptotic cells at 0.05 uM after 24 hrs by Annexin-V/propidium iodide staining based flow cytometric method (reference value: 0.07%)", "type": "functional"}, "A549": {"tested_on": "A549", "assay": "cells", "details": "Homo sapiens, A549, 72 h", "description": "Antiproliferative activity against human A549 cells assessed as reduction in cell viability after 72 hrs by MTT assay"}}, "note": "Calls of active or inactive are those of the source. No cut-off for these calls is given here.", "data": [{"smiles": "COc1cc(O)c2c(=O)cc(-c3ccc(N4CCN(C)CC4)cc3)oc2c1Oc1c(C)n[nH]c1C", "values": [{"measurement": "Activity", "setting": "MV4-11 [1]", "result": 48.27, "unit": "%"}, {"measurement": "Activity", "setting": "MV4-11 [2]", "result": 17.82, "unit": "%"}, {"measurement": "Activity", "setting": "MV4-11 [3]", "result": "Dose-dependent effect"}, {"measurement": "IC50", "setting": "THP-1", "result": 0.79, "unit": "µM"}, {"measurement": "solubility", "setting": "physchem [4]", "result": 28, "unit": "µg/mL"}, {"measurement": "viability at 1.25 µM", "setting": "MV4-11 [5]", "result": 58.1, "unit": "%"}, {"measurement": "Activity", "setting": "MV4-11 [6]", "result": 7.29, "unit": "%"}, {"measurement": "Activity", "setting": "MV4-11 [7]", "result": 7.72, "unit": "%"}, {"measurement": "Activity", "setting": "MV4-11 [8]", "result": 12.42, "unit": "%"}, {"measurement": "IC50", "setting": "HL-60", "result": 5.21, "unit": "µM"}, {"measurement": "Activity", "setting": "MV4-11 [9]", "result": 28.21, "unit": "%"}, {"measurement": "inhibition in vivo at 15 mg/kg", "setting": "MV4-11 [10]", "result": 22.9, "unit": "%"}, {"measurement": "Activity", "setting": "MV4-11 [11]", "result": "Dose-dependent effect"}, {"measurement": "IC50", "setting": "CCRF-CEM", "result": 1.24, "unit": "µM"}, {"measurement": "inhibition in vivo at 45 mg/kg", "setting": "MV4-11 [12]", "result": 53, "unit": "%"}, {"measurement": "IC50", "setting": "CDK9/cyclin T1", "result": 0.0199, "unit": "µM"}, {"measurement": "Activity", "setting": "MV4-11 [13]", "result": "Dose-dependent effect"}, {"measurement": "Activity", "setting": "MV4-11 [14]", "result": 13.32, "unit": "%"}, {"measurement": "Activity", "setting": "MV4-11 [15]", "result": 9.05, "unit": "%"}, {"measurement": "Activity", "setting": "MV4-11 [16]", "result": 7.27, "unit": "%"}, {"measurement": "IC50", "setting": "HeLa", "result": 2.32, "unit": "µM"}, {"measurement": "Activity", "setting": "MV4-11 [17]", "result": "Dose-dependent effect"}, {"measurement": "Activity", "setting": "[18]", "result": "Non-Toxic"}, {"measurement": "IC50", "setting": "BT-549", "result": 1.85, "unit": "µM"}, {"measurement": "Activity", "setting": "MV4-11 [19]", "result": 62.77, "unit": "%"}, {"measurement": "Activity", "setting": "MV4-11 [20]", "result": 30.91, "unit": "%"}, {"measurement": "Activity", "setting": "MV4-11 [21]", "result": 55.77, "unit": "%"}, {"measurement": "IC50", "setting": "HT-29", "result": 1.8, "unit": "µM"}, {"measurement": "IC50", "setting": "RPMI-8226", "result": 0.82, "unit": "µM"}, {"measurement": "Activity", "setting": "MV4-11 [22]", "result": "inactive"}, {"measurement": "IC50", "setting": "HCT-116", "result": 0.39, "unit": "µM"}, {"measurement": "IC50", "setting": "L02", "result": 15.1, "unit": "µM"}, {"measurement": "IC50", "setting": "SW480", "result": 1.86, "unit": "µM"}, {"measurement": "Activity", "setting": "MV4-11 [23]", "result": 9.01, "unit": "%"}, {"measurement": "solubility", "setting": "physchem [24]", "result": 4540, "unit": "µg/mL"}, {"measurement": "Activity", "setting": "MV4-11 [25]", "result": "Dose-dependent effect"}, {"measurement": "Activity", "setting": "MV4-11 [26]", "result": 6.46, "unit": "%"}, {"measurement": "Activity", "setting": "MV4-11 [27]", "result": 33.91, "unit": "%"}, {"measurement": "Activity", "setting": "MV4-11 [28]", "result": 5.53, "unit": "%"}, {"measurement": "IC50", "setting": "A549", "result": 1.81, "unit": "µM"}]}]}
